Laboratory results published in paper PMC9238401, “Peptide Conjugates Derived from flg15, Pep13, and PIP1 That Are Active against Plant-Pathogenic Bacteria and Trigger Plant Defense Responses” (Applied and Environmental Microbiology, 2022).

Tests used:
[1] = tested on: Erwinia amylovora PMV6076; test: In vitro growth inhibition (MIC); assay type: cell-based; conditions: TSB, 25°C, 48 h, OD 600 nm (Bioscreen C), three replicates, experiment repeated twice; MIC = lowest concentration with no growth, given as range
Protocol: (§1) Peptide conjugates were tested for in vitro growth inhibition of the plant-pathogenic bacteria E. amylovora PMV6076, Xanthomonas arboricola pv. pruni CFBP5563, X. fragariae Xf349-9A, X. axonopodis pv. vesicatoria 2133-2, P. syringae pv. actinidiae Psa3700.1.1, and P. syringae pv. syringae EPS94 (Fig. 1, Table SA). The corresponding monomers (flg15, BP13, Pep13, PIP1, BP16, BP100, BP143, BP387, BP475, and KSL-W) were included for comparison.
(§2) The following plant-pathogenic bacterial strains were used: Erwinia amylovora PMV6076 (Institut National de la Recherche Agronomique, Angers, France), Pseudomonas syringae pv. syringae EPS94 (Institut de Tecnologia Agroalimentària, University of Girona, Spain), Xanthomonas axonopodis pv. vesicatoria 2133-2, X. axonopodis pv. vesicatoria Xav206 (Xav) (D. F. Ritchie, Department of Plant Pathology, North Carolina State University), Pseudomonas syringae pv. actinidiae Psa3700.1.1, Xanthomonas fragariae Xf349-9A (Instituto Valenciano de Investigaciones Agrarias, Valencia, Spain), and Xanthomonas arboricola pv. pruni CFBP5563 (Collection Française de Bactéries Associées aux Plantes, Angers, France). All bacteria except for X. fragariae were stored in Luria Bertani (LB) broth supplemented with glycerol (20%) and maintained at −80°C. For X. fragariae, medium B ([80]) was used instead of LB. E. amylovora, X. arboricola pv. pruni, P. syringae pv. syringae, and P. syringae pv. actinidiae were scraped from the agar medium after growing for 24 h at 25°C, and X. axonopodis pv. vesicatoria and X. fragariae, after growing for 48 h at 25°C. The cell material was suspended in sterile water to obtain a suspension of 10^8 CFU mL^−1.
(§3) Lyophilized peptides were solubilized in sterile Milli-Q water to a final concentration of 1 mM and filter-sterilized through a 0.22-μm pore filter. […] Then, 20 μL of each dilution were mixed in a microtiter plate well with 20 μL of the corresponding suspension of the bacterial indicator, 160 μL of Trypticase soy broth (TSB) (bioMérieux, France) to a total volume of 200 μL. Three replicates for each combination of strain, compound, and concentration were used. Microbial growth was determined by optical density measurement at 600 nm (Bioscreen C; Labsystem, Helsinki, Finland). Microplates were incubated at 25°C with 20 s of shaking before hourly absorbance measurement for 48 h. The experiment was repeated twice. The MIC was taken as the lowest compound concentration with no growth at the end of the experiment.

[2] = tested on: Pseudomonas syringae pv. actinidiae Psa3700.1.1; test: In vitro growth inhibition (MIC); assay type: cell-based; conditions: TSB, 25°C, 48 h, OD 600 nm (Bioscreen C), three replicates, experiment repeated twice; MIC given as range
Protocol: as §1, §2, §3

[3] = tested on: Pseudomonas syringae pv. syringae EPS94; test: In vitro growth inhibition (MIC); assay type: cell-based; conditions: TSB, 25°C, 48 h, OD 600 nm (Bioscreen C), three replicates, experiment repeated twice; MIC given as range
Protocol: as §1, §2, §3

[4] = tested on: Xanthomonas arboricola pv. pruni CFBP5563; test: In vitro growth inhibition (MIC); assay type: cell-based; conditions: TSB, 25°C, 48 h, OD 600 nm (Bioscreen C), three replicates, experiment repeated twice; MIC given as range
Protocol: as §1, §2, §3

[5] = tested on: Xanthomonas fragariae Xf349-9A; test: In vitro growth inhibition (MIC); assay type: cell-based; conditions: TSB, 25°C, 48 h, OD 600 nm (Bioscreen C), three replicates, experiment repeated twice; MIC given as range
Protocol: as §1, §2, §3

[6] = tested on: Xanthomonas axonopodis pv. vesicatoria 2133-2; conditions: TSB, 25°C, 48 h, OD 600 nm (Bioscreen C), three replicates, experiment repeated twice; MIC given as range
Text: The corresponding monomers (flg15, BP13, Pep13, PIP1, BP16, BP100, BP143, BP387, BP475, and KSL-W) were included for comparison.
as §2, §3

[7] = tested on: horse erythrocytes; conditions: TRIS buffer pH 7.2, 1 h, 37°C, absorbance 540 nm, relative to melittin 100 μM, ± confidence interval (α = 0.05)
Method in brief: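 Hemolysis measured as absorbance at 540 nm of supernatant, expressed as percent of melittin-lysed control after buffer subtraction. Compound solutions (750, 500, 300, 100 μM, Tris-buffered saline pH 7.2) were combined 1:1 with washed horse red cells for 1 h, 37°C, shaking.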

[8] = tested on: tobacco leaves; test: Effect of peptide infiltration on tobacco leaves (phytotoxicity); assay type: in vivo
Method in brief: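 Phytotoxicity was scored as necrotic lesion diameter 48 h post-infiltration. Each peptide was infiltrated at 50, 150 or 250 μM into fully expanded tobacco leaf mesophyll, on ≥3 leaves from different plants, alongside water and same-molar melittin controls.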

[9] = HPLC retention time as indicator of relative hydrophobicity; assay type: physicochemical; conditions: chromatographic, Kromasil 100 C18 (4.6 mm × 40 mm, 3 μm), linear gradient 2 to 100% B over 12 min, 1 mL/min; A 0.1% aqueous TFA, B 0.1% TFA in CH3CN; used as indicator of relative hydrophobicity
Protocol: The parameters related to the structure of the peptide conjugates (sequence, charge, hydrophobic ratio [HR], and HPLC retention time), as well as their physicochemical properties (grand average hydropathicity [GRAVY] and hydrophobic moment [<μH>]) obtained from the online programs ProtParam (Expasy server) and HeliQuest are included in Table 1.
Peptides were analyzed under standard analytical HPLC conditions. Method A: peptides were analyzed with a Dionex liquid chromatography instrument composed of a UV/Vis Dionex UVD170U detector, a P680 Dionex pump, an ASI-100 Dionex automatic injector, and Chromeleon 6.60 software. Detection was performed at a wavelength of 220 nm. Solvent A was 0.1% aqueous trifluoroacetic acid (TFA), and solvent B was 0.1% TFA in CH3CN. Analyses were carried out with a Kromasil 100 C18 (4.6 mm × 40 mm, 3 μm) column with a linear gradient of 2 to 100% B over 7 min at a flow rate of 1 mL/min. Method B: peptides were analyzed with a 1260 Infinity II liquid chromatography instrument (Agilent Technologies) composed of a diode array detector HS, a quaternary pump VL, a 1260 vial sampler, and OpenLab CDS ChemStation software. Analyses were carried out with a Kromasil 100 C18 (4.6 mm × 40 mm, 3 μm) column with a linear gradient of 2 to 100% B over 12 min at a flow rate of 1 mL/min.

[10] = 100 μL infiltrated into mesophyll, lesion diameter 48 h after infiltration, at least three leaves, ± confidence interval (α = 0.05)

Substance | MIC, Ea [1] | MIC, Psa [2] | MIC, Pss [3] | MIC, Xap [4] | MIC, Xf [5] | MIC, Xav [6] | Percent hemolysis at 50 μM [7] | Percent hemolysis at 150 μM [7] | Percent hemolysis at 250 μM [7] | Percent hemolysis at 375 μM [7] | Size of the lesions in infiltrated tobacco leaves at 50 μM [8, 10] | Size of the lesions in infiltrated tobacco leaves at 150 μM [8, 10] | Size of the lesions in infiltrated tobacco leaves at 250 μM [8, 10] | tR (min), HPLC retention time (method B) [9] | Size of the lesions in infiltrated tobacco leaves at 50 μM ([8]; in vivo) | Size of the lesions in infiltrated tobacco leaves at 150 μM ([8]; in vivo) | Size of the lesions in infiltrated tobacco leaves at 250 μM ([8]; in vivo)
Ac-KKLfKKILKK(COC3H7)L-RINSAKDDAAGLQIA-OH [BP475-flg15, peptide conjugate, lipopeptide BP475 at N-terminus, flg15 at C-terminus] | 12.5 to 25 µM | 3.1 to 6.2 µM | 6.2 to 12.5 µM | 1.6 to 3.1 µM | 25 to 50 µM | 3.1 to 6.2 µM | 1 ± 1.0% | 0 ± 0.2% | 1 ± 0.3% | 1 ± 0.3% | 0.43 ± 0.13 cm | 1.20 ± 0.23 cm | 1.23 ± 0.28 cm | 6.03 min | – | – | –
H-FKLFKKILKVLKKVVFWVKFK-NH2 [BP13-KSLW] | > 50 µM | 6.2 to 12.5 µM | 12.5 to 25 µM | 1.6 to 3.1 µM | 1.6 to 3.1 µM | 1.6 to 3.1 µM | 80 ± 11.2% | 90 ± 7.3% | 100 ± 8.4% | 99 ± 8.4% | 0.56 ± 0.23 cm | 1.00 ± 0.25 cm | 0.92 ± 0.36 cm | 7.02 min | – | – | –
H-KKVVFWVKFKFKLFKKILKVL-NH2 [KSLW-BP13] | 25 to 50 µM | 1.6 to 3.1 µM | 25 to 50 µM | 1.6 to 3.1 µM | 1.6 to 3.1 µM | 3.1 to 6.2 µM | 62 ± 8.2% | 65 ± 5.9% | 77 ± 12.9% | 82 ± 10.4% | 0.52 ± 0.13 cm | 0.88 ± 0.15 cm | 1.07 ± 0.34 cm | 6.26 min | – | – | –
H-KKVVFWVKFKYGIHTH-NH2 [KSLW-PIP1] | > 50 µM | > 50 µM | > 50 µM | 3.1 to 6.2 µM | 3.1 to 6.2 µM | 3.1 to 6.2 µM | 8 ± 1.3% | 3 ± 2.1% | 3 ± 1.2% | 5 ± 4.9% | – | – | – | 4.83 min | 0.17 ± 0.17 cm | 0.53 ± 0.07 cm | 0.97 ± 0.28 cm
H-RINSAKDDAAGLQIAKKLFKKILKKL-NH2 [flg15-BP16] | 3.1 to 6.2 µM | 3.1 to 6.2 µM | 6.2 to 12.5 µM | 3.1 to 6.2 µM | 1.6 to 3.1 µM | 1.6 to 3.1 µM | 2 ± 0.1% | 3 ± 0.2% | 4 ± 0.9% | 5 ± 0.3% | 0.20 ± 0.12 cm | 0.49 ± 0.13 cm | 0.42 ± 0.11 cm | 5.89 min | – | – | –
H-YGIHTHKKVVFWVKFK-NH2 [PIP1-KSLW] | 12.5 to 25 µM | 6.2 to 12.5 µM | 6.2 to 12.5 µM | 3.1 to 6.2 µM | 6.2 to 12.5 µM | 3.1 to 6.2 µM | 7 ± 0.8% | 7 ± 1.1% | 6 ± 0.4% | 6 ± 0.4% | – | – | – | 4.81 min | 0 ± 0 cm | 0.47 ± 0.24 cm | 0.70 ± 0.11 cm
KKLFKKILKKL-RINSAKDDAAGLQIA-OH [BP16-flg15, peptide conjugate, BP16 at N-terminus, flg15 at C-terminus] | > 50 µM | 12.5 to 25 µM | 12.5 to 25 µM | 25 to 50 µM | 12.5 to 25 µM | 3.1 to 6.2 µM | 0 ± 0.3% | 1 ± 0.1% | 0 ± 0.6% | 1 ± 0.5% | 0 ± 0 cm | 0.31 ± 0.10 cm | 0.30 ± 0.09 cm | 4.59 min | – | – | –
KKLFKKILKYL-RINSAKDDAAGLQIA-OH [BP100-flg15, peptide conjugate, BP100 at N-terminus, flg15 at C-terminus] | 6.2 to 12.5 µM | 1.6 to 3.1 µM | 3.1 to 6.2 µM | 1.6 to 3.1 µM | 6.2 to 12.5 µM | 3.1 to 6.2 µM | 1 ± 0.9% | 1 ± 0.8% | 3 ± 0.0% | 6 ± 1.6% | 0.10 ± 0.12 cm | 0.28 ± 0.14 cm | 0.36 ± 0.13 cm | 4.96 min | – | – | –
